Test results: patent US20150018383A1, “BIOMARKERS OF RENAL DISORDERS” (Institut National de la Sante et de la Recherche Medicale …, priority 2011, published 2015)
Entries after “also recorded” stand apart in the source; their conditions may differ.

Experiments:
[1] = system: glomerular cells (TUNEL-positive nuclei); assay: Glomerular TUNEL apoptosis assay in kidney transplant biopsies; type: in vivo, human; details: renal transplant recipients with lower eGFR, sirolimus-treated versus not treated
Experimental: (§1) The study was conducted on 80 renal transplant recipients followed at the Renal Transplant Department of Necker hospital.
Apoptosis was detected in 4-μm sections of paraffin-embedded kidneys by TUNEL assay using the In Situ Cell Death Detection kit (Roche) according to the manufacturer's protocol. The glomerular apoptotic index was calculated as the number of glomeruli with at least one TUNEL-positive nuclei for the total number of glomeruli. All the microscopic fields of a whole kidney section were quantified.

[2] = Urinary albumin excretion in renal transplant recipients; type: in vivo, human
Experimental: as §1
For human samples, urinary creatinine and albumin were determined using a Hitachi 917 analyzer (Roche Diagnostics), whereas plasma creatinine and sirolimus were evaluated using a Synchron Cx4 autoanalyser (Beckman Coulter) and high-performance liquid chromatography, respectively.

For CO[C@H]1C[C@@H]2CC[C@@H](C)[C@@](O)(O2)C(=O)C(=O)N2CCCC[C@H]2C(=O)O[C@H]([C@H](C)C[C@@H]2CC[C@@H](O)[C@H](OC)C2)CC(=O)[C@H](C)/C=C(\C)[C@@H](O)[C@@H](OC)C(=O)[C@H](C)C[C@H](C)/C=C/C=C/C=C/1C [sirolimus], the “glomerular apoptosis (TUNEL)” value [1] was “marked increased of apoptosis; also recorded: increased glomerular apoptosis”, the “development of albuminuria / proteinuria upon sirolimus treatment” value ([2]; cohort of kidney transplant recipients at different stages of renal failure) was “only patients with severe nephron reduction developed albuminuria; also recorded: marked proteinuria” and the “urinary albumin excretion, serial follow-up” value ([2]; patient 1, on sirolimus administration) was “severe albuminuria”. The “urinary albumin excretion, serial follow-up” value ([2]; patient 2, after removal of sirolimus) was “reversed albuminuria”.
